According to patent US9206130B2, “Quinoline derivatives as AXL kinase inhibitors” (Max-Planck-Gesellschaft zur Förderung der Wissenschaften …, priority 2008, dated 2015):
Where a name gives a salt, the structure may show the parent alone.

How the values were obtained:
[1] = target: T1, wild type AXL (wtAXL) receptor tyrosine kinase (Homo sapiens, UniProt P30530); assay: NIH-3T3-AXL cellular tyrosine kinase assay (inhibition of AXL phosphorylation); assay type: cell-based; details: AXL phosphorylation in NIH-3T3-AXL (clone 22) cells, serum-depleted, 2 h with compound, immunoprecipitation / anti-phosphotyrosine blot
T1 construct: WtAXL cDNA was cloned into vector pLXSN(ESK) and transfected into Phoenix E packaging cells; expressed in transfected cells; host or cells: NIH3T3 N7 mouse fibroblasts, retrovirally infected (clone 22)
T1 sequence (P30530 26-894): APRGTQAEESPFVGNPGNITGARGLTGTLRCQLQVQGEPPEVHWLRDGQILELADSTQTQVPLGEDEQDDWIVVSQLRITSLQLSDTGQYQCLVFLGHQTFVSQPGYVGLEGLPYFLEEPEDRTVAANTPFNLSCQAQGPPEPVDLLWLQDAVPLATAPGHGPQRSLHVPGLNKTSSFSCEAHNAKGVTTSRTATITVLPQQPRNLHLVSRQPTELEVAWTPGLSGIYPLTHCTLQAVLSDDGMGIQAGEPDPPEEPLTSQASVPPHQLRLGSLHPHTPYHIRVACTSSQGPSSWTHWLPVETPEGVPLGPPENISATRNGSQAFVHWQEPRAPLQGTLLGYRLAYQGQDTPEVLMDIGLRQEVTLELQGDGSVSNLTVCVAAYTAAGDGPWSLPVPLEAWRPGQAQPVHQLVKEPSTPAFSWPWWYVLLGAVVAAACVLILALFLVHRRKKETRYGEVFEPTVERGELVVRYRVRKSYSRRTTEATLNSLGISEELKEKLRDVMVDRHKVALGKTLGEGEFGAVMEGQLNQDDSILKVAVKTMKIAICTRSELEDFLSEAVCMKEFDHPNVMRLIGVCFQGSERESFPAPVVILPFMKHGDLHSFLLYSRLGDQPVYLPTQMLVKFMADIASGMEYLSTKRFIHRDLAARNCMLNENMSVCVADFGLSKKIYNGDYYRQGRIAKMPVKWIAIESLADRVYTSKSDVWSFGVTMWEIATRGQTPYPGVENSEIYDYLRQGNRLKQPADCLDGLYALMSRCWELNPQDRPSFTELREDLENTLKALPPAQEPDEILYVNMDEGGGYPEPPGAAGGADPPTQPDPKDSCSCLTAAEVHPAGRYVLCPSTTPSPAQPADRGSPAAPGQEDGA
Protocol: 3) Inhibitory Activity of Compounds on Axl Phosphorylation in NIH-3T3-AXL Cellular Tyrosine Kinase Assay
The viral supernatant was collected and used to infect target cells NIH3T3 N7. Monoclonal NIH3T3-AXL cell lines stably expressing wtAXL were generated by selecting retrovirally infected cells in medium containing puromycin (2 μg/ml) and subsequent clonal separation.
NIH-3T3-AXL Cellular Kinase Assay
Serial dilutions of compounds were added, and the cells were further incubated or 2 h. […] The clarified cell lysate (10 min at 13000 rpm at 4° C.) were used for immunoprecipitation. Equal amounts of protein were mixed with 2 μg anti-AXL polyclonal antibody (homemade) and 20 μl Protein A sepharose beads, and rotated for 6 hr at 4° C. After immunoprecipitation, the beads were washed three times with 1×HNTG (50 mM HEPES (pH 7.5), 150 mM NaCl, 10% Glycerol, 0.2% Triton X-100). The final pellet was suspended in 20 μl 2× Laemmli buffer, and boiled for 5 min at 100° C. […] The membrane was then incubated with anti-phosphotyrosine antibody (4G10) overnight at 4° C. followed by washing with 1×TBST buffer three times. After incubating membrane with HRP-conjugated anti-mouse secondary antibody for 1 hour at room temperature followed by washing with 1×TBST buffer three times, the proteins were visualized by ECL.

Structure (SMILES)	melting point	IC50 [1]
COc1cc2nccc(Oc3ccc(NS(=O)(=O)c4cccc(C#N)c4)c(F)c3)c2cc1OC [Example A1, 3-Cyano-N-[4-(6,7-dimethoxy-quinolin-4-yloxy)-2-fluoro-phenyl]-benzenesulfonamide]	223 to 224 °C	4500 nM
COc1cc2nccc(Oc3ccc(NS(=O)(=O)c4ccc(F)c(F)c4)c(F)c3)c2cc1OC [Example A3, N-[4-(6,7-Dimethoxy-quinolin-4-yloxy)-2-fluoro-phenyl]-3,4-difluoro-benzenesulfonamide]	217 to 219 °C	3400 nM
COc1cc2nccc(Oc3ccc(NS(=O)(=O)c4cccs4)c(F)c3)c2cc1OC [Example A4]	214 to 216 °C	6000 nM
COc1cc2nccc(Oc3ccc(NS(=O)(=O)c4cc(Cl)cc(Cl)c4O)c(F)c3)c2cc1OC [Example A5, 3,5-Dichloro-N-[4-(6,7-dimethoxy-quinolin-4-yloxy)-2-fluoro-phenyl]-2-hydroxy-benzenesulfonamide]	232 to 234 °C	500 nM
COc1cc2nccc(Oc3ccc(NS(=O)(=O)c4ccc(C)c(F)c4)c(F)c3)c2cc1OC [Example A6, N-[4-(6,7-Dimethoxy-quinolin-4-yloxy)-2-fluoro-phenyl]-3-fluoro-4-methyl-benzenesulfonamide]	211 to 212 °C	4300 nM
COc1cc2nccc(Oc3ccc(NS(=O)(=O)c4sc(NC(C)=O)cc4C)c(F)c3)c2cc1OC [Example A7, N-{5-[4-(6,7-Dimethoxy-quinolin-4-yloxy)-2-fluoro-phenylsulfamoyl]-4-methyl-thiophen-2-yl}-acetamide]	133 to 135 °C	> 10000 nM
COC(=O)c1sccc1S(=O)(=O)Nc1ccc(Oc2ccnc3cc(OC)c(OC)cc23)cc1F [Example A9, 3-[4-(6,7-Dimethoxy-quinolin-4-yloxy)-2-fluoro-phenylsulfamoyl]-thiophene-2-carboxylic acid methyl ester]	189 to 190 °C	3700 nM
COc1cc2nccc(Oc3ccc(NS(=O)(=O)c4ccc(Br)c(F)c4)c(F)c3)c2cc1OC [Example A11, 4-Bromo-N-[4-(6,7-dimethoxy-quinolin-4-yloxy)-2-fluoro-phenyl]-3-fluoro-benzenesulfonamide]	209 to 211 °C	2260 nM
COc1cc2nccc(Oc3ccc(NS(=O)(=O)c4ccc(F)c(Cl)c4)c(F)c3)c2cc1OC [Example A12, 3-Chloro-N-[4-(6,7-dimethoxy-quinolin-4-yloxy)-2-fluoro-phenyl]-4-fluoro-benzenesulfonamide]	208 to 210 °C	1260 nM
COc1cc2nccc(Oc3ccc(NS(=O)(=O)c4ccc(Cl)cc4F)c(F)c3)c2cc1OC [Example A13, 4-Chloro-N-[4-(6,7-dimethoxy-quinolin-4-yloxy)-2-fluoro-phenyl]-2-fluoro-benzenesulfonamide]	218 to 219 °C	2900 nM
COc1cc2nccc(Oc3ccc(NS(=O)(=O)c4c(F)cccc4F)c(F)c3)c2cc1OC [Example A14, N-[4-(6,7-Dimethoxy-quinolin-4-yloxy)-2-fluoro-phenyl]-2,6-difluoro-benzenesulfonamide]	223 to 225 °C	1400 nM
COc1cc2nccc(Oc3ccc(NS(=O)(=O)c4cccc(OC(F)F)c4)c(F)c3)c2cc1OC [Example A15, 3-Difluoromethoxy-N-[4-(6,7-dimethoxy-quinolin-4-yloxy)-2-fluoro-phenyl]-benzenesulfonamide]	238 to 239 °C	2260 nM
COc1cc2nccc(Oc3ccc(NS(=O)(=O)/C=C/c4ccccc4)c(F)c3)c2cc1OC [Example A16, 2-Phenyl-ethenesulfonic acid [4-(6,7-dimethoxy-quinolin-4-yloxy)-2-fluoro-phenyl]-amide]	224 to 225 °C	1810 nM
COc1cc2nccc(Oc3ccc(NS(=O)(=O)c4cccc5ccccc45)c(F)c3)c2cc1OC [Example A17, Naphthalene-1-sulfonic acid [4-(6,7-dimethoxy-quinolin-4-yloxy)-2-fluoro-phenyl]-amide]	243 to 245 °C	890 nM
COc1cc2nccc(Oc3ccc(NS(=O)(=O)c4cc(Cl)sc4Cl)c(F)c3)c2cc1OC [Example A18, 2,5-Dichloro-thiophene-3-sulfonic acid [4-(6,7-dimethoxy-quinolin-4-yloxy)-2-fluoro-phenyl]-amide]	223 to 225 °C	2100 nM
COc1cc2nccc(Oc3ccc(NS(=O)(=O)c4ccc(Br)c(C)c4)c(F)c3)c2cc1OC [Example A19, 4-Bromo-N-[4-(6,7-dimethoxy-quinolin-4-yloxy)-2-fluoro-phenyl]-3-methyl-benzenesulfonamide]	199 to 201 °C	4500 nM
COc1cc2nccc(Oc3ccc(NS(=O)(=O)c4ccc(F)c(F)c4F)c(F)c3)c2cc1OC [Example A20, N-[4-(6,7-Dimethoxy-quinolin-4-yloxy)-2-fluoro-phenyl]-2,3,4-trifluoro-benzenesulfonamide]	188 to 190 °C	5050 nM
COc1cc2nccc(Oc3ccc(NS(=O)(=O)c4ccc(C)s4)c(F)c3)c2cc1OC [Example A21, 5-Methyl-thiophene-2-sulfonic acid [4-(6,7-dimethoxy-quinolin-4-yloxy)-2-fluoro-phenyl]-amide]	218 to 220 °C	4700 nM
COc1cc2nccc(Oc3ccc(NS(=O)(=O)c4ccco4)c(F)c3)c2cc1OC [Example A22, Furan-2-sulfonic acid [4-(6,7-dimethoxy-quinolin-4-yloxy)-2-fluoro-phenyl]-amide]	210 to 212 °C	9600 nM
COc1cc2nccc(Oc3ccc(NS(=O)(=O)c4cccc(Br)c4)c(F)c3)c2cc1OC [Example A24, 3-Bromo-N-[4-(6,7-dimethoxy-quinolin-4-yloxy)-2-fluoro-phenyl]-benzenesulfonamide]	255 to 257 °C	2400 nM
COc1cc2nccc(Oc3ccc(NS(=O)(=O)c4ccc(Cl)cc4F)cc3OC)c2cc1OC [Example A141, 4-Chloro-N-[4-(6,7-dimethoxy-quinolin-4-yloxy)-3-methoxy-phenyl]-2-fluoro-benzenesulfonamide]		> 10000 nM
COc1cc2c(Oc3ccc(NS(=O)(=O)c4cccc5ccccc45)cc3F)ccnc2cc1OCCCN [Example D02, Naphthalene-1-sulfonic acid {4-[7-(3-amino-propoxy)-6-methoxy-quinolin-4-yloxy]-3-fluoro-phenyl}-amide hydrochloride]		695 nM
COc1cc2c(Oc3ccc(NS(=O)(=O)c4cccc(-c5ccccc5)c4)cc3F)ccnc2cc1OCCCN [Example D03, Biphenyl-3-sulfonic acid {4-[7-(3-amino-propoxy)-6-methoxy-quinolin-4-yloxy]-3-fluoro-phenyl}-amide hydrochloride]		837 nM
COc1cc2c(Oc3ccc(NS(=O)(=O)c4ccccc4OC(F)(F)F)cc3F)ccnc2cc1OCCCN [Example D15, N-{4-[7-(3-Amino-propoxy)-6-methoxy-quinolin-4-yloxy]-3-fluoro-phenyl}-2-trifluoromethoxy-benzenesulfonamide hydrochloride]		364 nM
COc1cc2c(Oc3ccc(NS(=O)(=O)c4ccccc4Br)cc3F)ccnc2cc1OCCCN1CCOCC1 [Example D49, 2-Bromo-N-{3-fluoro-4-[6-methoxy-7-(3-morpholin-4-yl-propoxy)-quinolin-4-yloxy]-phenyl}-benzenesulfonamide]	185 to 188 °C	
